Experiment [1] has as its target T1, Axl (Homo sapiens, UniProt P30530).
T1 construct: purchased Life Technologies
T1 sequence (P30530 26-894): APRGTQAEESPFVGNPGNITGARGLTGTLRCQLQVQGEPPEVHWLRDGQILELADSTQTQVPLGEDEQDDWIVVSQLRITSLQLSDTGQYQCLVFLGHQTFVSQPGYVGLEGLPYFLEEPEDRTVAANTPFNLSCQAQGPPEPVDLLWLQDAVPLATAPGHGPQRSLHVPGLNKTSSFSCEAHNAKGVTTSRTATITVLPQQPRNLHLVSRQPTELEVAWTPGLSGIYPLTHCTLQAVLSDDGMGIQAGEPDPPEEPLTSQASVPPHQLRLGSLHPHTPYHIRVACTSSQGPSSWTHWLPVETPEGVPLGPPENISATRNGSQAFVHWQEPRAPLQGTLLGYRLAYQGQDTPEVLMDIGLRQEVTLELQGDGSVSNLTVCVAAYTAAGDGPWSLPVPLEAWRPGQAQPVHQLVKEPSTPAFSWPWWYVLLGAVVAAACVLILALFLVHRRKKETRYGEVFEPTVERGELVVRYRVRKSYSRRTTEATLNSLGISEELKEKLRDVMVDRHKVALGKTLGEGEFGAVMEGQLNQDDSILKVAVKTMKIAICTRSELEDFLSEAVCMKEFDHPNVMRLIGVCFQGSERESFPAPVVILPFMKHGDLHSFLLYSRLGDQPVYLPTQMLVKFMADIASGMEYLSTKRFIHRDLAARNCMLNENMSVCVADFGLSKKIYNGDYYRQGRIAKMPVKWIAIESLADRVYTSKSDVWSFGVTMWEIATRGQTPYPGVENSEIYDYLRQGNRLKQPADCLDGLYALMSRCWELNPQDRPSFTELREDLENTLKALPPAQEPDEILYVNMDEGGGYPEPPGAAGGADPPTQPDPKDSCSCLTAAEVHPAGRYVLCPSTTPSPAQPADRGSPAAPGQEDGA
As to the kind of experiment: LanthaScreen Eu kinase binding assay, Axl. The settings on record: Tracer 236. Background: In TR-FRET formats the signal depends on donor and acceptor labels being close together.

Experiment [2] has as its system Axl phosphorylation in transiently transfected HEK293T cells. As to the kind of experiment: Cellular Axl phosphorylation assay. It counts as cell-based. The settings on record: Homo sapiens, HEK-293T; HEK293T cells transfected with Axl, 1 hour compound treatment, Phospho-Axl vs Total-Axl. The gist of the method: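 Axl-RTK was overexpressed by transfection in HEK293T cells to drive trans-autophosphorylation; cells were exposed to test compound for 1 hour. Phospho-Axl and total Axl were captured in lysates and detected by MSD electrochemiluminescence. IC50 was set between the DMSO group and the empty-vector-transfected minimum.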

Take `CCOc1cn(C2CCCC2)nc1C(=O)Nc1ccc(Oc2ccnc3cc(OC)c(OC)cc23)cn1` [Compound 3]: in experiment [1], the dissociation constant Kd is < 100 nM. Besides, the IC50 in experiment [2] is < 100 nM.
For `CCOc1cn(-c2ccccn2)nc1C(=O)Nc1ccc(Oc2ccnc3cc(OC)c(OC)cc23)cn1` [Compound 4], the dissociation constant (Kd) in experiment [1] is < 100 nM. Also, the IC50 in experiment [2] was < 100 nM.
As to `CCOc1cn(-c2cccnn2)nc1C(=O)Nc1ccc(Oc2ccnc3cc(OC)c(OC)cc23)cn1` [Compound 5], in experiment [1], the dissociation constant (Kd) was < 100 nM. The half-inhibitory concentration (IC50) in experiment [2] was < 100 nM.
For the compound `CCOc1cn(C2CCOC2)nc1C(=O)Nc1ccc(Oc2ccnc3cc(OC)c(OC)cc23)cn1` (stereo not shown) [Compound 76], in experiment [1], the Kd is < 100 nM. For the same compound, the concentration for half-maximal inhibition (IC50) in experiment [2] is < 100 nM.
For `CCOc1cn(-c2cnccc2C)nc1C(=O)Nc1ccc(Oc2ccnc3cc(OC)c(OC)cc23)cn1` [Compound 79], the equilibrium dissociation constant (Kd) in experiment [1] is < 100 nM. Also, the IC50 in experiment [2] was < 100 nM.
`CCOc1cn(CCC#N)nc1C(=O)Nc1ccc(Oc2ccnc3cc(OC)c(OC)cc23)cn1` [Compound 80]: the Kd in experiment [1] was < 100 nM. The concentration for half-maximal inhibition (IC50) in experiment [2] was < 100 nM.
Regarding `CCOc1cn(C(C)CC#N)nc1C(=O)Nc1ccc(Oc2ccnc3cc(OC)c(OC)cc23)cn1` (stereo not shown) [Compound 81], the equilibrium dissociation constant (Kd) in experiment [1] is < 100 nM. Moreover, the IC50 in experiment [2] is < 100 nM.
Regarding `CCOc1cn(-c2ccc(F)cc2C)nc1C(=O)Nc1ccc(Oc2ccnc3cc(OC)c(OC)cc23)c(Cl)c1` [Compound 82], the Kd in experiment [1] was < 100 nM. Besides, the IC50 in experiment [2] is < 100 nM.
`CCOc1cn(-c2cccnc2)nc1C(=O)Nc1ccc(Oc2ccnc3cc(OC)c(OC)cc23)cc1F` [Compound 85]: the dissociation constant Kd in experiment [1] was < 100 nM. In experiment [2], the concentration for half-maximal inhibition (IC50) was < 100 nM.
Take `CCOc1cn(CCOC(F)F)nc1C(=O)Nc1ccc(Oc2ccnc3cc(OC)c(OC)cc23)cn1` [Compound 86]: the Kd in experiment [1] is < 100 nM. In addition, the half-inhibitory concentration (IC50) in experiment [2] was < 100 nM.
On to `CCOc1cn(-c2ccc(Cl)cc2C)nc1C(=O)Nc1ccc(Oc2ccnc3cc(OC)c(OC)cc23)cn1` [Compound 87], for which, in experiment [1], the dissociation constant (Kd) is < 100 nM. In addition, in experiment [2], the IC50 was < 100 nM.
For `CCOc1cn(-c2ccc(F)cc2)nc1C(=O)Nc1ccc(Oc2ccnc3cc(OC)c(OC)cc23)cn1` [Compound 89], in experiment [1], the Kd was < 100 nM. The IC50 in experiment [2] is < 100 nM.
On to `CCOc1cn(-c2c(C)cc(OC)cc2C)nc1C(=O)Nc1ccc(Oc2ccnc3cc(OC)c(OC)cc23)cn1` [Compound 92], for which the Kd in experiment [1] is < 100 nM. For the same compound, the 50% inhibitory concentration (IC50) in experiment [2] is < 100 nM.
With `CCOc1cn(-c2ncc(N)cn2)nc1C(=O)Nc1ccc(Oc2ccnc3cc(OC)c(OC)cc23)cn1` [Compound 93], the Kd in experiment [1] is < 100 nM. The 50% inhibitory concentration (IC50) in experiment [2] was < 100 nM.

As a reminder, the Kd is a measure of binding affinity in units of concentration. High values mean a looser complex, low ones a tighter complex. As usually defined, the IC50 is the concentration that inhibits the measured activity by half. A higher IC50 goes with lower potency.

Source of the values: patent publication US10934274B2, “Quinoline derivatives as TAM RTK inhibitors” (Qurient Co., Ltd., priority 2015, dated 2021).
